On the set-up of data set [1]: method as in doi:10.1158/1538-7445.am2015-ct309. Conditions: healthy human volunteers ref 26; cited from earlier work.
The test system of a further data set is METex14-positive NSCLC. The data set can be described thus: Preliminary efficacy by RECIST v1.1, Module 1 Part B cohort 1. Format: in vivo, human. Particulars: OMO-1 monotherapy 200 or 250 mg BID. Here is the method:
(§1) The starting dose was 100 mg BID.
(§2) Safety analyses were descriptive.

The nature of data set [2]: Pharmacokinetics of OMO-1 in plasma, Module 1 Part A. It counts as in vivo, human. Here is the method: as §1
Analysis was performed using PKSolver to define Cmax, trough concentration (Ctrough), AUC∞, AUC0-last, Vd, clearance, elimination half-life (t½), and Tmax of OMO-1.[24] In the paired biopsy analysis, expression of total MET and phosphorylated MET was performed by immunohistochemistry.

The target of data set [3] is T1, OCT-2 (Homo sapiens, UniProt O15244).
T1 construct: from tissue; host or cells: patients in vivo (endogenous transporter; serum, plasma and urine markers measured)
T1 sequence (O15244 1-555): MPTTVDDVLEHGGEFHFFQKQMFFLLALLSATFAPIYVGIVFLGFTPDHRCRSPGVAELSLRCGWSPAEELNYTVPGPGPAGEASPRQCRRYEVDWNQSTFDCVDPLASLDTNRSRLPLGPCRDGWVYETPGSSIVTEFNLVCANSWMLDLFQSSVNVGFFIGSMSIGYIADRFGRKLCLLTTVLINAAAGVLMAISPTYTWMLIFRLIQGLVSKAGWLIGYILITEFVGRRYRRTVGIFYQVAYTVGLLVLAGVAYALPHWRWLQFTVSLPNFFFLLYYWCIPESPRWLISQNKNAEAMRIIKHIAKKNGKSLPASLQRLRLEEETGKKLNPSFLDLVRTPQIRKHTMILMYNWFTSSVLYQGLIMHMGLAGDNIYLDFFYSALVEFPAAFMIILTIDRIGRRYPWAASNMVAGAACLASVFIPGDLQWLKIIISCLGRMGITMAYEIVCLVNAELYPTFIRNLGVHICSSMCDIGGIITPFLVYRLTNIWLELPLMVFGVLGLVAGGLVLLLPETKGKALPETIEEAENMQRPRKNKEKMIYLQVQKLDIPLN
The data set can be described thus: Renal function markers (creatinine, Cystatin C, KIM1) as on-target OCT-2 inhibition. Format: in vivo. Here is the method: as §1

The test system of data set [4] is MET amplified NSCLC or other MET positive solid tumors. The data set is described as follows: Preliminary efficacy by RECIST v1.1, Module 1 Part B cohort 2 (MET basket). It counts as in vivo, human. Particulars: 5/5 patients, 200 or 250 mg BID. As to the method:
as §1, §2

Data set [5] deals with T1, OCT-2. The data set can be described thus: Plasma tryptophan and kynurenine levels to explore OCT-2 inhibition. Format: in vivo. As to the method:
as §1

The text below walks through data of article PMC10712729, “A Phase I Trial of the Dual MET Kinase/OCT-2 Inhibitor OMO-1 in Metastatic Solid Malignancies Including MET Exon 14 Mutated Lung Cancer” (The Oncologist, 2023).

Entries after “also recorded” stand apart in the source; their conditions may differ.

With `FC(F)(c1ccc2ncccc2c1)c1nnc2ccc(-c3ccncc3)nn12` [OMO-1], the renal toxicity result in data set [1] is reported as “no renal toxicity was observed”. Moreover, the “clinical benefit duration of at least 8 weeks” value with METex14-positive NSCLC is given as 5/10. Also, the partial response entry with METex14-positive NSCLC (RECIST v.1.1) is on record as “No patients; also recorded: no partial response”. Further, the “plasma exposure as measured by AUC(0-8 h), dose proportionality” value in data set [2] (100 to 400 mg BID) is on record as “dose-proportional without accumulation”. Also, in data set [2] (RP2D of 250 mg BID), the “AUC(0-8 h)” value is 5684 ng·h/mL and the Cmax is 1372 ng/mL. Further, the T½ in data set [2] (oral, patients) is 2.5 to 3 h. Besides, the “median Tmax” value in data set [2] (range across the dose escalation cohorts, second daily dose 4-5 h after first) was 5 to 7.8 h. Further, the “cystatin C and KIM-1, additional markers for renal function” value on OCT-2 [3] (monotherapy OMO-1) is on record as “did also not identify any significant renal function issues”. Moreover, the “overall mean creatinine levels” value on OCT-2 [3] (throughout the study) is reported as “within the normal ranges”. The clinical benefit result in data set [4] is given as “No clinical benefit of any length; also recorded: no clinical efficacy”. This compound displayed a median kynurenin level at OCT-2 [5] (8 h post-dose, IQR 396-559, pre-dose 509 ng/mL, P = .57) of 471 ng/mL. The mean kyn/trp ratio on OCT-2 [5] (8 h post-dose, pre-dose 57, P < .001) turned out to be 49. Besides, the “mean tryptophan plasma level” value on OCT-2 [5] (cycle 1 day 1, 8 h post-dose, pre-dose 9475 ng/mL, P = .014, 30 patients Module 1) is recorded as 10 605 ng/mL. Moreover, the “changes in plasma tryptophan levels and kyn/trp ratio, dependence on dose or Cmax” value at OCT-2 [5] (in vivo) is “not dose or Cmax dependent”.
